This note sets out measurements from patent US8765759B2, “Monocyclic CGRP receptor antagonists” (Merck Sharp & Dohme Corp., priority 2008, dated 2014).

As a reminder, the Ki is the dissociation constant of the complex between target and ligand, obtained from inhibition or displacement.

The target in this assay is T1, recombinant human CL receptor/RAMP1 (Homo sapiens, UniProt O60894+Q16602).
T1 construct: expressed in transfected cells; membranes
The assay is described as follows: RECOMBINANT RECEPTOR BINDING ASSAY (125I-hCGRP). As to conditions: 125I-hCGRP binding to membranes of HEK 293 cells expressing recombinant human CL receptor/RAMP1; stated as 'generally ... less than about'. The protocol: RECOMBINANT RECEPTOR: Human CL receptor (Genbank accession number L76380) was subcloned into the expression vector pIREShyg2 (BD Biosciences Clontech) as a 5′NheI and 3′ PmeI fragment. Human RAMP1 (Genbank accession number AJ001014) was subcloned into the expression vector pIRESpuro2 (BD Biosciences Clontech) as a 5′NheI and 3′NotI fragment. HEK 293 cells (human embryonic kidney cells; ATCC #CRL-1573) were cultured in DMEM with 4.5 g/L glucose, 1 mM sodium pyruvate and 2 mM glutamine supplemented with 10% fetal bovine serum (FBS), 100 units/mL penicillin and 100 μg/mL streptomycin, and maintained at 37° C. and 95% humidity. Cells were subcultured by treatment with 0.25% trypsin with 0.1% EDTA in HBSS. Stable cell line generation was accomplished by co-transfecting 10 μg of DNA with 30 μg Lipofectamine 2000 (Invitrogen) in 75 cm^2 flasks. CL receptor and RAMP1 expression constructs were co-transfected in equal amounts. Twenty-four hours after transfection the cells were diluted and selective medium (growth medium+300 μg/mL hygromycin and 1 μg/mL puromycin) was added the following day. A clonal cell line was generated by single cell deposition utilizing a FACS Vantage SE (Becton Dickinson). Growth medium was adjusted to 150 μg/mL hygromycin and 0.5 μg/mL puromycin for cell propagation.
RECOMBINANT RECEPTOR BINDING ASSAY: Cells expressing recombinant human CL receptor/RAMP1 were washed with PBS and harvested in harvest buffer containing 50 mM HEPES, 1 mM EDTA and Complete protease inhibitors (Roche). The cell suspension was disrupted with a laboratory homogenizer and centrifuged at 48,000 g to isolate membranes. The pellets were resuspended in harvest buffer plus 250 mM sucrose and stored at −70° C. For binding assays, 20 μg of membranes were incubated in 1 ml binding buffer (10 mM HEPES, pH 7.4, 5 mM MgCl2, and 0.2% BSA) for 3 hours at room temperature containing […] ^125I-hCGRP (GE Healthcare) and antagonist. The assay was terminated by filtration through 96-well GFB glass fiber filter plates (PerkinElmer) that had been blocked with 0.05% polyethyleneimine. The filters were washed 3 times with ice-cold assay buffer (10 mM HEPES, pH 7.4 and 5 mM MgCl2). Scintillation fluid was added and the plates were counted on a Topcount (Packard). Non-specific binding was determined and the data analysis was carried out with the apparent dissociation constant (Ki) determined by using a non-linear least squares fitting the bound CPM data to the equation below:
[formula] […]

Each structure is given as a SMILES string. Bounds are passed on as bounds.

T1 sequence (Q16602 23-461): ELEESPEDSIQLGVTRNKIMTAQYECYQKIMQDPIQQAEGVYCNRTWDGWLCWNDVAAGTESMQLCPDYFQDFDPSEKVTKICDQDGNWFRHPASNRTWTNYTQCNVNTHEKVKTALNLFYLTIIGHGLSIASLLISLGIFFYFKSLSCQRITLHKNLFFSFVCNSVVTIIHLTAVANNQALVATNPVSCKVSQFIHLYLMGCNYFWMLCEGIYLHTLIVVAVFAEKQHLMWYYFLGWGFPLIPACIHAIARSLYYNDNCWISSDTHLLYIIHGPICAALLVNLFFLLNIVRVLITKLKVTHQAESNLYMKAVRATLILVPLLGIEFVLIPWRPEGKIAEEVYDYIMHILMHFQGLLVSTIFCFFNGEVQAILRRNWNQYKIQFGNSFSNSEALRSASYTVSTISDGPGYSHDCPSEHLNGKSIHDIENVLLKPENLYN
T1 sequence (O60894 27-148): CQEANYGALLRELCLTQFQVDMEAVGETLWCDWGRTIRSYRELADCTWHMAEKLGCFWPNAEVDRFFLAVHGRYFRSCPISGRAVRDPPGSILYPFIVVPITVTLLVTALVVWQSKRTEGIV

With `CN1C[C@@](C)(c2cc(F)cc(F)c2)N(CCOc2ccc3c(c2)C[C@@]2(C3)C(=O)Nc3ncccc32)C(=O)C12CCCC2` [Example 15], the Ki was below 50 µM.

As for `CN1C[C@@](C)(c2cc(F)cc(F)c2)N(C/C=C/c2ccc3c(c2)C[C@@]2(C3)C(=O)Nc3ncccc32)C(=O)C12CCCC2` [Example 8], the Ki is below 50 µM.

`CN1C[C@@](C)(c2cc(F)cc(F)c2)N(CCCc2ccc3c(c2)C[C@@]2(C3)C(=O)Nc3ncccc32)C(=O)C12CCCC2` [Example 9]: the Ki is below 50 µM.

As for `C[C@@]1(c2cc(F)cc(F)c2)CNC2(CCCC2)C(=O)N1CCOc1ccc2c(c1)C[C@@]1(C2)C(=O)Nc2ncccc21` [Example 13], the Ki is below 50 µM.
